Converted amounts (≈) assume the structure as drawn. The source made the active and inactive calls. No cut-off for these calls is given here.

As usually defined, the IC50 is the concentration needed to halve the response being measured. A lower IC50 goes with higher potency. Usually IC90 stands for the point of the concentration-response curve where the effect stands at 90%. High values mean weaker potency, low ones greater potency. A word on the GI50: it is the concentration giving 50% growth inhibition. High values mean less potent growth inhibition, low ones more potent growth inhibition.

One series deals with Escherichia coli. Nature of the series: Antibacterial activity against Escherichia coli […] assessed as growth inhibition at 30 ug/ml relative to control. As to conditions: read-out: GI. In kind it is functional.
The test system of series [1] is Mycobacterium tuberculosis. Nature of the series: Anti-tubercular activity against rifampicin, isoniazid, ethambutol and pyrazinamide-sensitive Mycobacterium tuberculosis H37Ra ATCC 25177 assessed as growth inhibition at 30 ug/ml by XRMA method relative to control. It is filed as functional. Conditions: read-out: GI.
A further series has as its system Staphylococcus aureus. Nature of the series: Antibacterial activity against Staphylococcus aureus ATCC 29213 assessed as growth inhibition at 30 ug/ml relative to control. In kind it is functional. As to conditions: for inhibition of growth at 30 µg/mL: read-out: GI.
Series [2] concerns Mycobacterium tuberculosis. Nature of the series: Anti-tubercular activity against rifampicin, isoniazid, ethambutol and pyrazinamide-sensitive Mycobacterium tuberculosis H37Ra ATCC 25177 assessed as growth inhibition at 3 ug/ml by XRMA method relative to control. In kind it is functional. As to conditions: for inhibition of growth at 3 µg/mL: read-out: GI.
Series [3] has as its system Mycobacterium tuberculosis. Nature of the series: Anti-tubercular activity against rifampicin, isoniazid, ethambutol and pyrazinamide-sensitive Mycobacterium tuberculosis H37Ra ATCC 25177 assessed as growth inhibition at 10 ug/ml by XRMA method relative to control. In kind it is functional. Conditions: for inhibition of growth at 10 µg/mL: read-out: GI.
The test system of another series is Pseudomonas fluorescens. Nature of the series: Antibacterial activity against Pseudomonas fluorescens ATCC 13525 assessed as growth inhibition at 30 ug/ml relative to control. In kind it is functional. As to conditions: for inhibition of growth at 30 µg/mL: read-out: GI.
In a further series the test system is Bacillus subtilis. Nature of the series: Antibacterial activity against Bacillus subtilis ATCC 23857 assessed as growth inhibition at 30 ug/ml relative to control. It is filed as functional. Conditions: for inhibition of growth at 30 µg/mL: read-out: GI.
Series [4] relates to Mycobacterium tuberculosis. Nature of the series: Anti-tubercular activity against rifampicin, isoniazid, ethambutol and pyrazinamide-sensitive active phage of Mycobacterium tuberculosis H37Ra ATCC 25177 infected in human THP1 cells by neutral red assay. Conditions: H37Ra ATCC 25177, THP-1. In kind it is functional, organism-based.
Series [5] concerns Mycobacterium tuberculosis. Nature of the series: Anti-tubercular activity against rifampicin, isoniazid, ethambutol and pyrazinamide-sensitive dormant phage of Mycobacterium tuberculosis H37Ra ATCC 25177 infected in human THP1 cells by neutral red assay. Conditions: H37Ra ATCC 25177, THP-1. In kind it is functional, organism-based.
The subject of series [6] is Mycobacterium tuberculosis. Nature of the series: Anti-tubercular activity against rifampicin, isoniazid, ethambutol and pyrazinamide-sensitive dormant phage of Mycobacterium tuberculosis H37Ra ATCC 25177 by serial dilution method. It is filed as functional, organism-based.
The subject of series [7] is Mycobacterium tuberculosis. Nature of the series: Anti-tubercular activity against rifampicin, isoniazid, ethambutol and pyrazinamide-sensitive active phage of Mycobacterium tuberculosis H37Ra ATCC 25177 by serial dilution method. In kind it is functional, organism-based.
The next series has as its system THP-1. Nature of the series: (§1) Cytotoxicity against human THP1 cells after 48 hrs by MTT assay. In kind it is cell-based. Conditions: thp-1, 48 h. In general terms: Formazan colour is commonly taken as a measure of viable cells.
A short description of series [8]: as §1. Conditions: THP-1 cells. It is filed as cell-based, THP-1.
A short description of series [9]: Cytotoxicity against human PANC1 cells after 48 hrs by MTT assay. It is filed as cell-based, PANC-1.
The next series deals with A549. Nature of the series: (§2) Cytotoxicity against human A549 cells after 48 hrs by MTT assay. It is filed as cell-based. As to conditions: a549, 48 h.
Series [10] can be described thus: as §2. In kind it is cell-based. Conditions: A549 cells.

As for `COC(=O)CC[C@@H](C)[C@H]1CC[C@H]2[C@H]3[C@H]([C@H](n4cc(-c5ccccc5)nn4)C(=O)[C@]12C)[C@@]1(C)CC[C@@H](OC(C)=O)C[C@H]1C[C@H]3OC(C)=O`, the inhibition of growth at 30 µg/mL in the series with Escherichia coli came to 17.8%; in [1], 74%; with Bacillus subtilis, 20%. Also, the “growth inhibition (GI)” value in the series with Staphylococcus aureus and in the series with Pseudomonas fluorescens was “inactive” throughout. Further, in [2], the inhibition of growth at 3 µg/mL was found to be 67%. The inhibition of growth at 10 µg/mL in series [3] amounted to 68%.
Consider `COC(=O)CC[C@@H](C)[C@H]1CC[C@H]2[C@H]3[C@H]([C@H](N=[N+]=[N-])C(=O)[C@]12C)[C@@]1(C)CC[C@@H](OC(C)=O)C[C@H]1C[C@H]3OC(C)=O`, for which the inhibition of growth at 30 µg/mL in series [1] is 12%. The “growth inhibition (GI)” value in series [2] and in series [3] was “inactive” each time.
In the case of `COC(=O)CC[C@@H](C)[C@H]1CC[C@H]2[C@H]3[C@H]([C@H](NC(C)C)C(=O)[C@]12C)[C@@]1(C)CC[C@@H](OC(C)=O)C[C@H]1C[C@H]3OC(C)=O`, the inhibition of growth at 30 µg/mL in the series on Escherichia coli turned out to be 31.9%; in series [1] it was 84%; in the series with Staphylococcus aureus, 16.4%; in the series on Pseudomonas fluorescens, 37.2%; in the series on Bacillus subtilis, 4.79%. In addition, in series [2], the inhibition of growth at 3 µg/mL is 66%. The inhibition of growth at 10 µg/mL in series [3] amounted to 71%.
For `NNC(=O)c1ccncc1` [ISONIAZID], the IC50 in series [4] worked out at 0.0024 µg/mL (≈ 0.0175 µM); in series [5], 0.0024 µg/mL (≈ 0.0175 µM); in series [6], 0.0023 µg/mL (≈ 0.0168 µM); in series [7], 0.0019 µg/mL (≈ 0.0139 µM). The IC90 in [4] stood at 0.075 µg/mL (≈ 0.547 µM); in series [5] it was 0.0078 µg/mL (≈ 0.0569 µM); in [6], 0.075 µg/mL (≈ 0.547 µM); in series [7] it was 0.074 µg/mL (≈ 0.54 µM).
Regarding `CC(=O)O[C@H]1C(=O)[C@@]2(C)[C@H]([C@H](OC(=O)c3ccccc3)[C@]3(O)C[C@H](OC(=O)[C@H](O)[C@@H](NC(=O)c4ccccc4)c4ccccc4)C(C)=C1C3(C)C)[C@]1(OC(C)=O)CO[C@@H]1C[C@@H]2O` [PACLITAXEL], the GI90 in the series on THP-1 came to 5.814 µg/mL (≈ 6.81 µM); in series [9] (panc-1, 48 h), 5.715 µg/mL (≈ 6.69 µM); with A549 it was 0.0706 µg/mL (≈ 0.0827 µM). For the same molecule, the values for the GI50 at 48 h in series [8], in series [9] (PANC-1 cells) and in series [10] were 0.137 µg/mL (≈ 0.161 µM), 0.128 µg/mL (≈ 0.15 µM) and 0.0035 µg/mL (≈ 0.0041 µM), respectively.
For the molecule `CO[C@H]1/C=C/O[C@@]2(C)Oc3c(C)c(O)c4c(O)c(c(/C=N/N5CCN(C)CC5)c(O)c4c3C2=O)NC(=O)/C(C)=C\C=C\[C@H](C)[C@H](O)[C@@H](C)[C@@H](O)[C@@H](C)[C@H](OC(C)=O)[C@@H]1C` [RIFAMPIN], the IC50 in series [4] was 0.0021 µg/mL (≈ 0.00255 µM); in series [5] it was 0.0018 µg/mL (≈ 0.00219 µM); in [6], 0.0014 µg/mL (≈ 0.0017 µM); in series [7], 0.0018 µg/mL (≈ 0.00219 µM). The IC90 in series [4] came out at 0.051 µg/mL (≈ 0.062 µM); in series [5], 0.048 µg/mL (≈ 0.0583 µM); in [6], 0.043 µg/mL (≈ 0.0523 µM); in [7] it was 0.048 µg/mL (≈ 0.0583 µM).
Take `C[C@H](CCC(=O)O)[C@H]1CC[C@H]2[C@@H]3[C@H](O)C[C@@H]4C[C@H](O)CC[C@]4(C)[C@H]3C[C@H](O)[C@]12C` [CHOLIC ACID]: the inhibition of growth at 30 µg/mL in series [1] was 53%. Also, in [2], the “growth inhibition (GI)” value was “inactive”. The inhibition of growth at 10 µg/mL in [3] was 36%.
`CCOC(=O)N[C@@H]1C(=O)[C@]2(C)[C@@H]([C@H](C)CCC(=O)OC)CC[C@H]2[C@H]2[C@H]1[C@@]1(C)CC[C@@H](OC(C)=O)C[C@H]1C[C@H]2OC(C)=O`: the inhibition of growth at 30 µg/mL in the series on Escherichia coli is 46.7%; in series [1], 86%; with Staphylococcus aureus, 17.3%; with Pseudomonas fluorescens it was 54.5%. In addition, the inhibition of growth at 3 µg/mL in series [2] worked out at 66%. Also, the inhibition of growth at 10 µg/mL in series [3] was 73%. For the same molecule, the “growth inhibition (GI)” value with Bacillus subtilis was “inactive”.
Turning to `COC(=O)CC[C@@H](C)[C@H]1CC[C@H]2[C@H]3[C@H]([C@H](n4cc(-c5ccc(F)cc5)nn4)C(=O)[C@]12C)[C@@]1(C)CC[C@@H](OC(C)=O)C[C@H]1C[C@H]3OC(C)=O`, the inhibition of growth at 30 µg/mL stood at 43.8% with Escherichia coli, 79% in series [1], 23.2% in the series with Pseudomonas fluorescens and 20% with Bacillus subtilis. In the series with Staphylococcus aureus, the “growth inhibition (GI)” value was “inactive”. Moreover, the inhibition of growth at 3 µg/mL in [2] is 71%. Besides, the inhibition of growth at 10 µg/mL in series [3] was 75%.
Take `COC(=O)CC[C@@H](C)[C@H]1CC[C@H]2[C@H]3[C@H]([C@H](n4cc(-c5ccccn5)nn4)C(=O)[C@]12C)[C@@]1(C)CC[C@@H](OC(C)=O)C[C@H]1C[C@H]3OC(C)=O`: the inhibition of growth at 30 µg/mL was determined as 32.1% in the series with Escherichia coli, 71% in series [1] and 47.1% with Pseudomonas fluorescens. Moreover, the “growth inhibition (GI)” value in the series on Staphylococcus aureus and in the series on Bacillus subtilis was “inactive” each time. The inhibition of growth at 3 µg/mL in series [2] was 38%. In addition, the inhibition of growth at 10 µg/mL in [3] is 48%.
Take `COC(=O)CC[C@@H](C)[C@H]1CC[C@H]2[C@H]3[C@H]([C@H](NC(=O)[C@H]4CCCN4)C(=O)[C@]12C)[C@@]1(C)CC[C@@H](OC(C)=O)C[C@H]1C[C@H]3OC(C)=O`: the inhibition of growth at 30 µg/mL with Escherichia coli amounted to 23.9%; in series [1] it was 71%; in the series on Pseudomonas fluorescens, 20.1%. The “growth inhibition (GI)” value in the series with Staphylococcus aureus and in the series with Bacillus subtilis was “inactive” in each case. Also, the inhibition of growth at 3 µg/mL in series [2] came to 55%. Besides, the inhibition of growth at 10 µg/mL in [3] came to 66%.
For the molecule `COC(=O)CC[C@@H](C)[C@H]1CC[C@H]2[C@H]3[C@H]([C@H](NC(=O)C4CN4)C(=O)[C@]12C)[C@@]1(C)CC[C@@H](OC(C)=O)C[C@H]1C[C@H]3OC(C)=O` (some centres undefined), the inhibition of growth at 30 µg/mL in series [1] was determined as 14%. In addition, the “growth inhibition (GI)” value in series [2] is “inactive”. In addition, in series [3], the inhibition of growth at 10 µg/mL turned out to be 10%.
For the molecule `COC(=O)CC[C@@H](C)[C@H]1CC[C@H]2[C@@H]3[C@H](OC(C)=O)C[C@@H]4C[C@H](OC(C)=O)CC[C@]4(C)[C@H]3CC(=O)[C@]12C`, the inhibition of growth at 30 µg/mL in series [1] was 34%. Further, the inhibition of growth at 3 µg/mL in series [2] amounted to 13%. In addition, in series [3], the inhibition of growth at 10 µg/mL was 28%.
`COC(=O)CC[C@@H](C)[C@H]1CC[C@H]2[C@H]3[C@H]([C@H](N)C(=O)[C@]12C)[C@@]1(C)CC[C@@H](OC(C)=O)C[C@H]1C[C@H]3OC(C)=O`: the inhibition of growth at 30 µg/mL in series [1] was < 1%. In [2], the “growth inhibition (GI)” value is “inactive”. In addition, the inhibition of growth at 10 µg/mL in series [3] is < 1%.

(Values after ChEMBL document CHEMBL3616451, “Design and synthesis of 11α-substituted bile acid derivatives as potential anti-tuberculosis agents” (Bioorg Med Chem Lett, 2015).)
